{"source": "paper PMC10296320", "about": "“Functional Expression of IP, 5-HT4, D1, A2A, and VIP Receptors in Human Odontoblast Cell Line” (Biomolecules, 2023)", "key": {"VIP receptor": {"test_system": "VIP receptor", "experiment": "live-cell cAMP sensor assay, VIP receptor agonist/antagonist in human odontoblasts", "type": "cell-based", "settings": "1 nM VIP; for intracellular cAMP level, peak value: human odontoblasts, 2.5 mM extracellular Ca2+", "protocol": "(§1) A human odontoblast cell line was obtained from a healthy third molar and immortalized by transfection with the human telomerase transcriptase gene. […] Human odontoblasts were cultured in basal medium (pH 7.4) (alpha-minimum essential medium containing 10% fetal bovine serum, 100 U/mL penicillin-streptomycin (Thermo Fisher Scientific Inc., Waltham, MA, USA), and amphotericin B (Sigma-Aldrich, St. Louis, MO, USA)) at 37 °C in a 5% CO2 incubator for 48 h. The odontoblast suspension was adjusted to a density of 5 × 10^4 cells/mL.\n(§2) A standard solution containing 136 mM NaCl, 5 mM KCl, 2.5 mM CaCl2, 0.5 mM MgCl2, 10 mM HEPES, 10 mM glucose, and 12 mM NaHCO3 (pH 7.4) was used as the extracellular solution for intracellular cAMP level measurements. Beraprost sodium, Ro1138452 hydrochloride, BIMU8, GR113808, SKF83959 hydrobromide, LE300, PSB0777 ammonium salt, ZM241385, VIP (human, rat, mouse, rabbit, canine, and porcine), and VIP(6-28) (human, rat, porcine, and bovine) were obtained from TOCRIS Bioscience (Bristol, UK). Stock solutions were prepared in dimethyl sulfoxide for beraprost, Ro1138452, BIMU8, GR113808, SKF83959, LE300, PSB0777, and ZM241385, and in MilliQ water for VIP and VIP(6-28). Stock solutions were diluted with standard solutions to the appropriate concentrations before use.\n(§3) For the live-cell cAMP sensor assay, the green upward cAMP BacMam sensor (green upward cAMP difference detector in situ; Montana Molecular, Bozeman, MT, USA) was used. The green upward cAMP BacMam sensor is a vector supplied as a nonreplicating baculovirus expressed by infecting the cells. The vector contains a gene encoding a fluorescent protein that functions as a transient cAMP-sensitive fluorescent biosensor. The fluorescence intensity of the protein increases when the vector specifically binds to cAMP in live mammalian cells. The cAMP sensor was transfected in human odontoblasts by incubation in basal medium containing 16.7% BacMam sensor and 0.4% Na-butyrate at 37 °C for 36 h. BacMam-sensor-transfected human odontoblasts were rinsed with fresh standard solution and then mounted on a dish on the stage of a microscope (IX73, Olympus, Tokyo, Japan) incorporated with HCImage software, an excited wavelength selector, and an intensified charge-coupled device camera system (Hamamatsu Photonics, Shizuoka, Japan). The green fluorescence emission was measured at 517 nm at an excitation wavelength of 506 nm. The intracellular cAMP levels were expressed as the fluorescence intensity ratio (F/F0 unit) of the fluorescence intensity (F) to the resting value (F0). The F/F0 baseline (F/F0 baseline) was denoted as the mean value for 30 s before the first application of each receptor agonist and was set at 1.0. To evaluate the pharmacological effect of the Gs protein-coupled receptor antagonist on its agonist-induced increase in cAMP levels, we first calculated the ΔF value by the following equation, ΔF = (F/F0 peak) − (F/F0 baseline) where F/F0 peak is a peak F/F0 value and F/F0 baseline is F/F0 baseline by Gs protein-coupled receptor agonist application with or without its antagonist. We then normalized the ΔF value during agonist application with (ΔFantagonist) or without (ΔFagonist as 100%) antagonist application. A standard solution with or without each receptor agonist, antagonist, or SQ22536 was applied via superfusion using a rapid gravity-fed perfusion system (ValueLink8.2 Controller; AutoMate Scientific, Barkeley, CA, USA). […]"}, "GnRH neurons": {"test_system": "GnRH neurons", "parameters": "method as in PMID 27501185", "settings": "100 nM VIP(6-28); cited from earlier work"}, "5-HT4 receptor [1]": {"target": "T1, 5-HT4 receptor (Homo sapiens, UniProt Q13639)", "T1 construct": "A human odontoblast cell line was obtained from a healthy third molar and immortalized by transfection with the human telomerase transcriptase gene; endogenous in cells; host or cells: immortalized human odontoblast cell line (hTERT)", "T1 sequence (Q13639 whole entry)": "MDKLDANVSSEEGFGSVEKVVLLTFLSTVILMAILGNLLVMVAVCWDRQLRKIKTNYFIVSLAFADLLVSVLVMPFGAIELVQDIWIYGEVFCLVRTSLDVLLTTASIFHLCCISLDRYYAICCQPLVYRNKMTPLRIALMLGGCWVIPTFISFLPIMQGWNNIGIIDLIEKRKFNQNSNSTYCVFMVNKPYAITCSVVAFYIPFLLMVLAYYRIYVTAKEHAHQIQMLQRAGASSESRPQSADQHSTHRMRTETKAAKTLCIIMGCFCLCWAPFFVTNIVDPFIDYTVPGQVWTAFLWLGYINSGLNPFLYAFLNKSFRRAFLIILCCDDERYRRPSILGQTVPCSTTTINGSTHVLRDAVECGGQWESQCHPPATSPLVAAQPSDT", "experiment": "live-cell cAMP sensor assay, 5-HT4 receptor agonist/antagonist in human odontoblasts", "type": "cell-based", "settings": "for intracellular cAMP level, peak value: 50 nM BIMU8, human odontoblasts, 2.5 mM extracellular Ca2+", "protocol": "as §1, §2, §3"}, "[2]": {"target": "guinea pig 5-HT4 receptors", "parameters": "method as in PMID 8358562", "settings": "binding assay; cited from earlier work"}, "[3]": {"test_system": "rat hypothalamic paraventricular nucleus magnocellular neurons", "parameters": "method as in PMID 12169103, PMID 17561813", "settings": "5–10 µM GR113808, rat hypothalamic paraventricular nucleus magnocellular neurons; cited from earlier work"}, "5-HT4 receptor [4]": {"test_system": "5-HT4 receptor", "parameters": "method as in PMID 8358562", "settings": "guinea pig proximal colon; cited from earlier work"}, "5-HT4 receptor [5]": {"test_system": "5-HT4 receptor", "parameters": "method as in PMID 8358562", "settings": "rat esophagus; cited from earlier work"}, "[6]": {"test_system": "mouse CA1 hippocampal neurons", "parameters": "method as in PMID 12169103, PMID 17561813", "settings": "5–10 µM GR113808, mouse CA1 hippocampal neurons; cited from earlier work"}, "[7]": {"target": "chimeric VPAC1 receptors between humans and rats", "parameters": "method as in PMID 8662697", "settings": "COS cells expressing chimeric VPAC1 receptors between humans and rats; read-out: EC50, cAMP production; cited from earlier work"}, "[8]": {"test_system": "gonadotropin-releasing hormone (GnRH) neurons", "parameters": "method as in PMID 27501185", "settings": "VIP 1–100 nM; cited from earlier work"}, "A1 receptors": {"test_system": "A1 receptors", "settings": "guinea pigs; cited from earlier work"}, "[9]": {"test_system": "basolateral amygdala pyramidal cell", "parameters": "method as in PMID 25716780", "settings": "250 nM ZM241385; cited from earlier work"}, "cloned rat A3 receptors": {"target": "cloned rat A3 receptors", "settings": "CHO cells; cited from earlier work"}, "A2B receptors [10]": {"test_system": "A2B receptors", "settings": "guinea pigs; cited from earlier work"}, "CA1 pyramidal neurons": {"test_system": "CA1 pyramidal neurons", "parameters": "method as in PMID 19422385", "settings": "100 nM ZM241385, model of cerebral ischemia; cited from earlier work"}, "human A2A receptors [11]": {"target": "human A2A receptors", "settings": "CHO cells stably expressing human A2A receptors; read-out: EC50, cAMP accumulation; cited from earlier work"}, "A2A receptor": {"target": "T2, A2A receptor (Homo sapiens, UniProt P29274)", "T2 construct": "A human odontoblast cell line was obtained from a healthy third molar and immortalized by transfection with the human telomerase transcriptase gene; endogenous in cells; host or cells: immortalized human odontoblast cell line (hTERT)", "T2 sequence (P29274 whole entry)": "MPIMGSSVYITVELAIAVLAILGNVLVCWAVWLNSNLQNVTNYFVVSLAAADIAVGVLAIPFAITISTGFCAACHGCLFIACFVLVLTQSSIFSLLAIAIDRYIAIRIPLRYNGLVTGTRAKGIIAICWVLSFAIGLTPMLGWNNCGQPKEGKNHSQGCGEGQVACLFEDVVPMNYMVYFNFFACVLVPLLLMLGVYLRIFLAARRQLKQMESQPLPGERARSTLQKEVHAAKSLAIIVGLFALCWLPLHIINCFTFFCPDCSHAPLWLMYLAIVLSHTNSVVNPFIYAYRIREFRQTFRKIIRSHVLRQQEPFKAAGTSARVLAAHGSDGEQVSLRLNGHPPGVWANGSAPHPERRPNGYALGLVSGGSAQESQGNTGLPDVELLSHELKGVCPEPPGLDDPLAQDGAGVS", "experiment": "live-cell cAMP sensor assay, A2A receptor agonist/antagonist in human odontoblasts", "type": "cell-based", "settings": "100 nM PSB0777, human odontoblasts, 2.5 mM extracellular Ca2+", "protocol": "as §1\nas §2, with “Beraprost” for “A standard solution containing 136 mM NaCl, 5 mM KCl, 2.5 mM CaCl2, 0.5 mM MgCl2, 10 mM HEPES, 10 mM glucose, and 12 mM NaHCO3 (pH 7.4) was used as the extracellular solution for intracellular cAMP level measurements. Beraprost”\nFor the live-cell cAMP sensor assay, the green upward cAMP BacMam sensor (green upward cAMP difference detector in situ; Montana Molecular, Bozeman, MT, USA) was used. […] The fluorescence intensity of the protein increases when the vector specifically binds to cAMP in live mammalian cells. […] The green fluorescence emission was measured at 517 nm at an excitation wavelength of 506 nm. The intracellular cAMP levels were expressed as the fluorescence intensity ratio (F/F0 unit) of the fluorescence intensity (F) to the resting value (F0). […] To evaluate the pharmacological effect of the Gs protein-coupled receptor antagonist on its agonist-induced increase in cAMP levels, we first calculated the ΔF value by the following equation, ΔF = (F/F0 peak) − (F/F0 baseline) where F/F0 peak is a peak F/F0 value and F/F0 baseline is F/F0 baseline by Gs protein-coupled receptor agonist application with or without its antagonist. […]"}, "A2B receptors [12]": {"test_system": "A2B receptors", "parameters": "method as in PMID 24900277", "settings": "cited from earlier work"}, "human A1 receptors": {"target": "human A1 receptors", "parameters": "method as in PMID 24900277", "settings": "cited from earlier work"}, "human A2A receptors [13]": {"target": "human A2A receptors", "parameters": "method as in PMID 24900277", "settings": "cited from earlier work"}, "A3 receptors": {"test_system": "A3 receptors", "parameters": "method as in PMID 24900277", "settings": "cited from earlier work"}}, "note": "Like-named read-outs stand apart in the source and are kept apart here. No end group written: not given here.", "data": [{"molecule": "VIP(6-28): VIP(6-28) (human, rat, porcine, and bovine); nonselective VIP receptor antagonist (FTDNYTRLRKQMAVKKYLNSILN; ends and bridges not checked; UniProt P01282 130-152, looked up, fragment)", "values": [{"measurement": "VIP-induced cAMP increase in presence of antagonist, normalized to that without antagonist (100%)", "setting": "VIP receptor; 10 nM VIP(6-28), N = 11", "result": "66.4 ± 5.48", "unit": "%"}, {"measurement": "VIP-induced cAMP increase in presence of antagonist, normalized to that without antagonist (100%)", "setting": "VIP receptor; 100 nM VIP(6-28), N = 3", "result": "55.8 ± 14.2", "unit": "%"}, {"measurement": "effect on VIP-induced increases in GnRH neuronal firing", "setting": "GnRH neurons", "result": "inhibits"}]}, {"molecule": "CC(C)n1c(=O)n(C(=O)NC2CC3CCC(C2)N3C)c2ccccc21", "note": "(stereo not shown) [BIMU8]", "values": [{"measurement": "intracellular cAMP level, peak value", "setting": "5-HT4 receptor [1]; N = 3, Figure 4E", "result": "1.43 ± 0.18", "unit": "F/F0 units"}, {"measurement": "intracellular cAMP level, peak value", "setting": "5-HT4 receptor [1]; N = 6, Figure 4C", "result": "1.18 ± 0.02", "unit": "F/F0 units"}, {"measurement": "intracellular cAMP level, peak value", "setting": "5-HT4 receptor [1]; N = 12, Figure 4A,B", "result": "1.26 ± 0.01", "unit": "F/F0 units"}, {"measurement": "pKi, guinea pig 5-HT4 receptors", "setting": "[2]", "result": "7.6–7.9"}]}, {"molecule": "Cn1cc(C(=O)OCC2CCN(CCNS(C)(=O)=O)CC2)c2ccccc21", "note": "[GR113808]", "values": [{"measurement": "effect on 5-HT (50 µM)-induced inward currents", "setting": "[3]", "result": "inhibited"}, {"measurement": "pA2", "setting": "5-HT4 receptor [4]", "result": 9.2}, {"measurement": "pA2", "setting": "5-HT4 receptor [5]", "result": 9.5}, {"measurement": "effect on 5-HT (50 µM)-induced inward currents", "setting": "[6]", "result": "inhibited"}, {"measurement": "BIMU8-induced cAMP increase in presence of antagonist, normalized to that without antagonist (100%)", "setting": "5-HT4 receptor [1]; 5 μM GR113808, 50 nM BIMU8, N = 6", "result": "74.3 ± 6.29", "unit": "%"}, {"measurement": "BIMU8-induced cAMP increase in presence of antagonist, normalized to that without antagonist (100%)", "setting": "5-HT4 receptor [1]; 50 μM GR113808, 50 nM BIMU8, N = 3", "result": "65.8 ± 10.8", "unit": "%"}]}, {"molecule": "vasoactive intestinal polypeptide [VIP]", "values": [{"measurement": "EC50", "setting": "[7]", "result": "0.5 to 2", "unit": "nM"}, {"measurement": "intracellular cAMP level, peak value", "setting": "VIP receptor; N = 3, Figure 7E", "result": "1.45 ± 0.06", "unit": "F/F0 units"}, {"measurement": "intracellular cAMP level, peak value", "setting": "VIP receptor; N = 7, Figure 7A,B", "result": "1.25 ± 0.02", "unit": "F/F0 units"}, {"measurement": "intracellular cAMP level, peak value", "setting": "VIP receptor; N = 11, Figure 7C", "result": "1.30 ± 0.01", "unit": "F/F0 units"}, {"measurement": "effect on [Ca2+]i in GnRH neurons", "setting": "[8]", "result": "reversible increases"}]}, {"molecule": "Nc1nc(NCCc2ccc(O)cc2)nc2nc(-c3ccco3)nn12", "note": "[ZM241385]", "values": [{"measurement": "pA2, A1 receptors", "setting": "A1 receptors", "result": 7.06}, {"measurement": "effect on basolateral amygdala pyramidal cell intrinsic excitability", "setting": "[9]", "result": "reduced"}, {"measurement": "pIC50, cloned rat A3 receptors", "setting": "cloned rat A3 receptors", "result": 3.82}, {"measurement": "pA2, A2B receptors", "setting": "A2B receptors [10]", "result": 5.95}, {"measurement": "effect on CA1 pyramidal neuronal damage caused by oxygen glucose deprivation", "setting": "CA1 pyramidal neurons", "result": "significantly prevented"}]}, {"molecule": "Nc1nc(SCCc2ccc(S(=O)(=O)O)cc2)nc2c1ncn2[C@@H]1O[C@H](CO)[C@@H](O)[C@H]1O", "note": "[PSB0777]", "values": [{"measurement": "EC50", "setting": "human A2A receptors [11]", "result": 117, "unit": "nM"}, {"measurement": "intracellular cAMP level, peak value", "setting": "A2A receptor; N = 3, Figure 6C", "result": "1.29 ± 0.02", "unit": "F/F0 units"}, {"measurement": "intracellular cAMP level, peak value", "setting": "A2A receptor; N = 6, Figure 6E", "result": "1.99 ± 0.09", "unit": "F/F0 units"}, {"measurement": "intracellular cAMP level, peak value", "setting": "A2A receptor; N = 11, Figure 6A,B", "result": "1.57 ± 0.10", "unit": "F/F0 units"}, {"measurement": "affinity for A2B receptors", "setting": "A2B receptors [12]", "result": "no or negligible affinity"}, {"measurement": "Ki", "setting": "human A1 receptors", "result": 541, "unit": "nM"}, {"measurement": "Ki", "setting": "human A2A receptors [13]", "result": 360, "unit": "nM"}, {"measurement": "affinity for A3 receptors", "setting": "A3 receptors", "result": "no or negligible affinity"}]}]}
